Experimental data taken from article PMC9650711, “Hydroxyl-Rich Hydrophilic Endocytosis-Promoting Peptide with No Positive Charge” (Journal of the American Chemical Society, 2022).

Assays:
Type in all cases: cell-based, human
[1] = system: RB-EPP6 uptake in U87 cells; test: Endocytosis inhibitors treatment, RB-EPP6 uptake by flow cytometry; conditions: inhibitor 1 h, then 500 nM RB-EPP6 1 h; for inhibition of RB-EPP6 uptake: flow cytometry median intensity; for effect on RB-EPP6 uptake (cholesterol extraction / binding): flow cytometry
Protocol: (§1) Flow cytometry experiments
(§2) To perform flow cytometry experiments, a NovoCyte flow cytometer (NovoExpress) was used.
(§3) Quantification of fluorescence intensity was achieved using the Novoxpress software. Fifty thousand cells were analyzed for each condition. A green fluorescent dye used for DNA staining, YOYO, was included in all the flow cytometry experiments, serving as a cell live/dead indicator.
(§4) For the YOYO-only group, the cells were treated with trypsin for 5-10 min and subsequently fixed in a 1.5 mL centrifuge tube using 4% paraformaldehyde at room temperature for 15 min. Then, fixed cells were washed with PBS once and were permeabilized using 90% MeOH on ice for 15 min. For all conditions, cells were incubated with YOYO in a phenol-free medium for half an hour, and then were centrifuged to remove the YOYO solution and resuspended in a fresh phenol-free medium before performing flow cytometry.
For general incubation, 300 k U87 cells were seeded in a 35×10 mm culture dish and incubated overnight under normal culturing conditions. Stock solutions of Dye-EPPs were made in DMSO to reach a concentration of 500 μM. Fresh cell culture medium was used to dilute the stock solution to 500 nM. Cells were incubated with RB-EPPs for desired time periods, followed by a one-time wash with phenol-free fresh culture medium before measurements. […]
Endocytosis inhibitors treatment
U87 cells were incubated with different endocytosis inhibitors for 1 h. Then, the media was replaced with fresh media containing 500 nM of RB-EPP6. After 1 h, a trypsin-EDTA solution (0.05%, Sigma) was added to detach the cells. The cells were collected by centrifugation and resuspended in phenol-free media. […]
Stock solutions of trackers for mitochondria, lysosome, and ER were diluted with cell culture medium into 100 nM, 500 nM, and 4 μM, respectively. RB-EPP6 was added to each working solution at 500 nM. U87 cells were incubated with the trackers and RB-EPP6 for 1 h and then washed once before confocal imaging.

[2] = system: RB-EPP6 uptake in U87 cells; test: Heparin-binding assay, RB-EPP6 uptake by flow cytometry; conditions: heparin sulfate 10-200 μg/mL 30 min, then with 500 nM RB-EPP6 1 h
U87 cells = test: Uptake and nuclear accumulation of TO- and EB-labeled EPPs, confocal; conditions: confocal imaging, TO conjugates 500 nM, EB-EPP6 2 ug/mL or 6 hr
Protocol: Confocal imaging experiments
To image the cells, a Zeiss 880 inverted confocal laser scanning microscope (Carl Zeiss, Germany) was used. Image acquisition and analyses were carried out using the manufacturer’s software (ZEN, Carl Zeiss). Quantification of fluorescence intensity in single cells was performed using Fiji […]
as §1, §2, §3
[…]
2 μL of RB-EPP (in DMSO) was added to the solution at a concentration of 500 μM. […] Samples were collected from both phases and quantified by Analytical HPLC separately. […]

| Compound | inhibition of RB-EPP6 uptake [1] | other results |
| --- | --- | --- |
| O=C(N/N=C/c1ccc(O)c(O)c1)c1cc2ccccc2cc1O [Dynasore] | 86% | – |
| CCCCC[C@@H](O)[C@H]1C(=O)O[C@H](C)[C@@H](O)/C=C/C=C/C=C/C=C/C=C(\C)[C@@H](O)C[C@H](O)C[C@H](O)C[C@H](O)C[C@H](O)C[C@H](O)C[C@@H]1O [filipin] | – | effect on RB-EPP6 uptake (cholesterol extraction / binding) [1]: did not inhibit |
| C=C1[C@@H](C)[C@H]2[C@H](Cc3ccccc3)NC(=O)[C@]23[C@H](OC(C)=O)/C=C/[C@@](C)(O)C(=O)[C@@H](C)C/C=C/[C@H]3[C@@H]1O [cytochalasin D] | 38% | – |
| c1ccc2c(c1)Nc1ccccc1S2 [phenothiazine] | no inhibition | – |
| heparin sulfate | – | effect on RB-EPP6 uptake [2]: did not affect |
| CC[n+]1c(-c2ccccc2)c2cc(N)ccc2c2ccc(N)cc21 [EB, ethidium bromide] | – | uptake / intracellular localisation (U87 cells): did not show any uptake |
| COC[C@H]1OC(=O)c2coc3c2[C@@]1(C)C1=C(C3=O)[C@@H]2CCC(=O)[C@@]2(C)C[C@H]1OC(C)=O [wortmannin] | 48% | – |
| O=C1NC(=NS(=O)(=O)c2cccc3ccccc23)S/C1=C\c1ccc(Br)cc1 [Pitstop 2] | 9% | – |
| methyl-β-cyclodextrin | – | effect on RB-EPP6 uptake (cholesterol extraction / binding) [1]: did not inhibit |
